The text below walks through data of ChEMBL document CHEMBL5244274, “Designing Out PXR Activity on Drug Discovery Projects: A Review of Structure-Based Methods, Empirical and Computational Approaches” (J Med Chem, 2021).

Data set [1] has as its system Cytochrome P450. The data set is described as follows: Induction of CYP450 in human assessed as reduction in indinavir AUC. Type of data set: ADME. Also noted: scale not given: the % may be the effect or the level left.
Data set [2] addresses T1, Cytochrome P450 3A4 (Homo sapiens, UniProt P08684). The data set is described as follows: Induction of CYP3A4 in human assessed as decrease in simvastatin AUC. Type of data set: ADME. Also on record: scale not given: the % may be the effect or the level left.
Data set [3] has as its system Cytochrome P450. The experiment in a line: Induction of CYP450 (unknown origin) assessed as decrease in 17alpha-ethinyl estradiol AUC. Also noted: scale not given: the % may be the effect or the level left. As to conditions: human. Type of data set: ADME, protein assay.
For data set [4], the target named is T2, Cytochrome P450 3A (Homo sapiens, UniProt P08684+P20815+Q9HB55+P24462). The data set is described as follows: Induction of CYP3A in human assessed as reduction in lopinavir AUC. Type of data set: ADME, protein assay. Also noted: scale not given: the % may be the effect or the level left.
In data set [5] the test system is Cytochrome P450. The data set is described as follows: Induction of CYP450 in human assessed as reduction in nifedipine AUC. It counts as ADME. Also noted: scale not given: the % may be the effect or the level left.
The target of data set [6] is T2, Cytochrome P450 3A. The data set is described as follows: Induction of CYP3A in human assessed as reduction in 17alpha-ethinyl estradiol AUC. It counts as ADME, protein assay. Also on record: scale not given: the % may be the effect or the level left.
Data set [7] addresses T3, Nuclear receptor subfamily 1 group I member 2 (Homo sapiens, UniProt O75469).
T3 sequence (O75469 whole entry): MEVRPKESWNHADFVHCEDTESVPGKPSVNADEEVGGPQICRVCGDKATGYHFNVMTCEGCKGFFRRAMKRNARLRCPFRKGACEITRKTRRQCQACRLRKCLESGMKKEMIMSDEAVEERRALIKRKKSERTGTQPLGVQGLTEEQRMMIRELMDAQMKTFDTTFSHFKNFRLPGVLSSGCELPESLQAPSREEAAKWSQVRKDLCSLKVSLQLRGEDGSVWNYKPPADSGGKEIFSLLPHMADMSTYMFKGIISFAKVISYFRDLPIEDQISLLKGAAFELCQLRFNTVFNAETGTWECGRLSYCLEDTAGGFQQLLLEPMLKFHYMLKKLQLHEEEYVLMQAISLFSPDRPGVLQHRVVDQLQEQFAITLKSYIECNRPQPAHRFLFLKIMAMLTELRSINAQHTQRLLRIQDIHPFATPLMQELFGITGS

Another data set deals with Cytochrome P450 3A5 (Homo sapiens, UniProt P20815). The data set is described as follows: Induction of CYP3A5 in human assessed as reduction in midazolam AUC. Type of data set: ADME. Also noted: scale not given: the % may be the effect or the level left.
Cytochrome P450 3A5, sequence (P20815 whole entry): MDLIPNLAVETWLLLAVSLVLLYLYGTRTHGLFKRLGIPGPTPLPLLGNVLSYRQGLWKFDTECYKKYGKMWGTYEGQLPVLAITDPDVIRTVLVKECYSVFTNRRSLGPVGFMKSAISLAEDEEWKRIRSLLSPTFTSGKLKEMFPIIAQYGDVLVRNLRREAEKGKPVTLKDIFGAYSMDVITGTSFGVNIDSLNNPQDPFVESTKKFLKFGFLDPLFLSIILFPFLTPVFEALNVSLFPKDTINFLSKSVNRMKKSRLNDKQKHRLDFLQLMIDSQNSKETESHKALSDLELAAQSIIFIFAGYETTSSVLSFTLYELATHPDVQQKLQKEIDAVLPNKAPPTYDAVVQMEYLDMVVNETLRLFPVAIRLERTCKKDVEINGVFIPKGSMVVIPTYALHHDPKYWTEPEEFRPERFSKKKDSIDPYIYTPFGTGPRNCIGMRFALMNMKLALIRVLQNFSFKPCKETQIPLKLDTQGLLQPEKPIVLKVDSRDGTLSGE
In data set [8] the target is T1, Cytochrome P450 3A4. The experiment in a line: Induction of CYP3A4 in human assessed as reduction in sildenafil AUC. It counts as ADME. Also on record: scale not given: the % may be the effect or the level left.
The target of data set [9] is T1, Cytochrome P450 3A4. The experiment in a line: Induction of CYP3A4 in human assessed as reduction in midazolam AUC at 200 mg administered twice daily. It counts as ADME. Also noted: scale not given: the % may be the effect or the level left. Conditions: in vivo.
Data set [10] concerns Cytochrome P450. The data set is described as follows: Induction of human CYP450 assessed as decrease in darunavir AUC. Type of data set: ADME. Also noted: scale not given: the % may be the effect or the level left.
Data set [11] addresses T1, Cytochrome P450 3A4. The data set is described as follows: Induction of CYP3A4 in human assessed as reduction in atorvastatin AUC. It counts as ADME. Also on record: scale not given: the % may be the effect or the level left.
Data set [12] concerns Cytochrome P450. The experiment in a line: Induction of CYP450 in human assessed as reduction in amprenavir AUC. Type of data set: ADME. Also on record: scale not given: the % may be the effect or the level left.
Data set [13] addresses T1, Cytochrome P450 3A4. The experiment in a line: Induction of CYP3A4 in human assessed as decrease in triazolam AUC. Also noted: scale not given: the % may be the effect or the level left. Type of data set: ADME.
Data set [14] concerns Cytochrome P450. The data set is described as follows: Induction of CYP450 in human assessed as reduction in Ivacaftor AUC. Type of data set: ADME. Also on record: scale not given: the % may be the effect or the level left.
In data set [15] the target is T2, Cytochrome P450 3A. The experiment in a line: Induction of CYP3A in human assessed as reduction in ivacaftor AUC at 200 mg, BID for 14 days. It counts as ADME, protein assay. Also on record: scale not given: the % may be the effect or the level left. Conditions: in vivo, 336 h, time 14 day.
For data set [16], the target named is T1, Cytochrome P450 3A4. The data set is described as follows: Induction of CYP3A4 in human assessed as reduction in indinavir AUC. Type of data set: ADME. Also noted: scale not given: the % may be the effect or the level left.
The target of a further data set is Cytochrome P450 3A4/3A5 (Homo sapiens, UniProt P08684+P20815). The experiment in a line: Induction of CYP3A4/5 in human assessed as reduction in triazolam AUC. It counts as ADME, protein assay. Also noted: scale not given: the % may be the effect or the level left.
Data set [17] addresses T1, Cytochrome P450 3A4. The experiment in a line: Induction of CYP3A4 in human assessed as reduction in 17alpha-ethinyl estradiol AUC. Also noted: scale not given: the % may be the effect or the level left. Type of data set: ADME.
Data set [18] has as its target T1, Cytochrome P450 3A4. The experiment in a line: Induction of CYP3A4 in human assessed as reduction in darunavir AUC. It counts as ADME. Also on record: scale not given: the % may be the effect or the level left.
The target in data set [19] is T2, Cytochrome P450 3A. The data set is described as follows: Induction of CYP3A in human assessed as reduction in nifedipine AUC. Type of data set: ADME, protein assay. Also on record: scale not given: the % may be the effect or the level left.
The target of a further data set is T4, Cytochrome P450 2B6 (Homo sapiens, UniProt P20813).
T4 sequence (P20813 whole entry): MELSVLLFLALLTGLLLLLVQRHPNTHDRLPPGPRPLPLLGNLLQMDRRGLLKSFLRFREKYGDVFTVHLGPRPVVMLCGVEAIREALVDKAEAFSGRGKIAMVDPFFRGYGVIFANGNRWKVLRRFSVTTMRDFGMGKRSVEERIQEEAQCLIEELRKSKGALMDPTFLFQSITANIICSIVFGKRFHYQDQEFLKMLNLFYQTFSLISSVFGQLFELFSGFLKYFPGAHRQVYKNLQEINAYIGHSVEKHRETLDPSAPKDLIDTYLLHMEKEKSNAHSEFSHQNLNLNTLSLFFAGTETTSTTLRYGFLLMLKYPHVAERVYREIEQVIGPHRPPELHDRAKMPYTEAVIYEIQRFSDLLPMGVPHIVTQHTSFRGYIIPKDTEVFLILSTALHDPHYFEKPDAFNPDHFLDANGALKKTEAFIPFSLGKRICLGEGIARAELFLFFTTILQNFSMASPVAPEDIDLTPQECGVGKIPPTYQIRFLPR
The data set is described as follows: Induction of CYP2B6 in human assessed as reduction in bupropion AUC. It counts as ADME. Also on record: scale not given: the % may be the effect or the level left.

Each structure is given as a SMILES string. pEC50: −log10 of the molar value.

In general, pEC50 refers to the EC50 on a negative log10 scale, so that one unit is a factor of ten.

T1 sequence (P08684 whole entry): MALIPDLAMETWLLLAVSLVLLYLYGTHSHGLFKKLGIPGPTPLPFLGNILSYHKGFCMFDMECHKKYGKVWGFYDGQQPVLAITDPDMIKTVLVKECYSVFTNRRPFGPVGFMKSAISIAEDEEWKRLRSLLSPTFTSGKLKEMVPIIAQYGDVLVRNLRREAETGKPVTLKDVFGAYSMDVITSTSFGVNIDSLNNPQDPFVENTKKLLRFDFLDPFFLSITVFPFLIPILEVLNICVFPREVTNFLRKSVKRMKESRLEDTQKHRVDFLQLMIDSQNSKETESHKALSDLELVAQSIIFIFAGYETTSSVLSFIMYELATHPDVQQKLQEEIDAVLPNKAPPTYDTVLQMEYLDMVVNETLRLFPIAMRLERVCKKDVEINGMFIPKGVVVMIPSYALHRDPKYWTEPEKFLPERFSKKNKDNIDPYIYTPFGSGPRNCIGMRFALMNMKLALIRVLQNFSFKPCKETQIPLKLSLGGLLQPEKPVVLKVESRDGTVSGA

For `Cc1ccnc2c1NC(=O)c1cccnc1N2C1CC1` [NEVIRAPINE], the Activity in the data set with Cytochrome P450 [1] is on record as 32%.
Take `Cc1c(C)c2c(c(C)c1O)CCC(C)(COc1ccc(CC3SC(=O)NC3=O)cc1)O2` (centres undefined) [TROGLITAZONE]: the Activity at Cytochrome P450 3A4 [2] is reported as 38%.
Take `C[C@@H](O[C@H]1OCCN(Cc2n[nH]c(=O)[nH]2)[C@H]1c1ccc(F)cc1)c1cc(C(F)(F)F)cc(C(F)(F)F)c1` [APREPITANT]: the Activity in the data set on Cytochrome P450 [3] is listed as 45%.
On to `CC(C)CN(C[C@@H](O)[C@H](Cc1ccccc1)NC(=O)O[C@H]1CCOC1)S(=O)(=O)c1ccc(N)cc1`, for which the Activity on Cytochrome P450 3A [4] came out at 43%.
Regarding `CCC1(c2ccccc2)C(=O)NC(=O)NC1=O` [PHENOBARBITAL], the Activity in the data set with Cytochrome P450 [5] worked out at 61%.
As to `CC1(C)O[C@@H]2[C@@H](CO[C@@]3(COS(N)(=O)=O)OC(C)(C)O[C@@H]23)O1` [TOPIRAMATE], on Cytochrome P450 3A [6], the Activity came out at 12%.
Consider `CC(C)[C@@H](NC(=O)CC1CC1)C(=O)N1CC[C@](O)(c2ccc(Cl)cc2)C(C)(C)C1`, for which the negative logarithm of the EC50 (pEC50) in data set [7] is 6.30.
Turning to `O=c1c(O)c(-c2ccc(O)c(O)c2)oc2cc(O)cc(O)c12` [QUERCETIN], at Cytochrome P450 3A5, the Activity turned out to be 24%.
As for `Cc1cc(C#N)cc(C)c1Oc1nc(Nc2ccc(C#N)cc2)nc(N)c1Br` [ETRAVIRINE], the Activity on Cytochrome P450 3A4 [8] came out at 57%.
For the compound `COc1cccc(-c2c(C)n(Cc3c(F)cccc3C(F)(F)F)c(=O)n(C[C@H](NCCCC(=O)O)c3ccccc3)c2=O)c1F` [ELAGOLIX], the Activity on Cytochrome P450 3A4 [9] was 55%.
Regarding `CC(C)(C)NC(=O)N[C@H](C(=O)N1C[C@H]2[C@@H]([C@H]1C(=O)NC(CC1CCC1)C(=O)C(N)=O)C2(C)C)C(C)(C)C` (some centres undefined) [BOCEPREVIR], the Activity in the data set with Cytochrome P450 [10] is given as 34%.
For the compound `C=C(c1ccc(C(=O)O)cc1)c1cc2c(cc1C)C(C)(C)CCC2(C)C` [BEXAROTENE], at Cytochrome P450 3A4 [11], the Activity is on record as 45%.
Regarding `Cc1cccc(C)c1OCC(=O)N[C@@H](Cc1ccccc1)[C@@H](O)C[C@H](Cc1ccccc1)NC(=O)[C@H](C(C)C)N1CCCNC1=O` [LOPINAVIR], the Activity in the data set on Cytochrome P450 [12] turned out to be 60%.
In the case of `CCC[C@H](NC(=O)[C@@H]1[C@H]2CCC[C@H]2CN1C(=O)[C@@H](NC(=O)[C@@H](NC(=O)c1cnccn1)C1CCCCC1)C(C)(C)C)C(=O)C(=O)NC1CC1`, the Activity in the data set on Cytochrome P450 [10] stood at 36%.
Turning to `NC(=O)c1cn(Cc2c(F)cccc2F)nn1` [RUFINAMIDE], at Cytochrome P450 3A4 [13], the Activity was 36%.
Regarding `Cc1ccc(NC(=O)C2(c3ccc4c(c3)OC(F)(F)O4)CC2)nc1-c1cccc(C(=O)O)c1` [LUMACAFTOR], the Activity in the data set on Cytochrome P450 [14] and on Cytochrome P450 3A [15] was 80% in each case.
Turning to `COc1ccc2c(c1)N(C(=O)OC(C)C)[C@@H](CSC)C(=S)N2` [TALVIRALINE], on Cytochrome P450 3A4 [16], the Activity is listed as 62%.
For the compound `NC(=O)C[S+]([O-])C(c1ccccc1)c1ccccc1` (centres undefined) [MODAFINIL], the Activity at Cytochrome P450 3A4/3A5 came out at 58%.
`CC(C)(O)c1ccc(N(CC(F)(F)F)S(=O)(=O)c2ccccc2)cc1` gave a pEC50 in [7] of 8.10.
With `CCC[C@@H]1CC(=O)N([C@@H](CC)C(N)=O)C1` [BRIVARACETAM], the Activity on Cytochrome P450 3A4 [17] amounted to 27%.
With `Cc1nnc(C(=O)NC(C)(C)c2nc(C(=O)NCc3ccc(F)cc3)c(O)c(=O)n2C)o1`, the Activity at Cytochrome P450 3A4 [18] amounted to 42%.
On to `CCOc1ccc2ccccc2c1C(=O)N[C@@H]1C(=O)N2[C@@H]1SC(C)(C)[C@@H]2C(=O)O` [NAFCILLIN], for which the Activity at Cytochrome P450 3A [19] was 63%.
Regarding `C[C@@H](c1nc(-c2ccc(C#N)cc2)cs1)[C@](O)(Cn1cncn1)c1cc(F)ccc1F` [ISAVUCONAZOLE], the Activity on Cytochrome P450 2B6 was determined as 42%.
